From PubChem BioAssay (NCI)
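Results reflect a 48-hour exposure of cells in 96-well plates to compound at five concentrations. TGI marks complete inhibition of growth.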

Columns and labels:
Experiment in all cases: DTP human tumour cell line panel, 48 h
[1] = test system: 786-0 renal
[2] = test system: A498 renal
[3] = test system: A549 NSCLC
[4] = test system: ACHN renal
[5] = test system: BT-549 breast
[6] = test system: CAKI-1 renal
[7] = test system: CCRF-CEM leukemia
[8] = test system: COLO 205 colon
[9] = test system: DU-145 prostate
[10] = test system: EKVX NSCLC
[11] = test system: HCC-2998 colon
[12] = test system: HCT-116 colon
[13] = test system: HCT-15 colon
[14] = test system: HL-60(TB) leukemia
[15] = test system: HOP-62 NSCLC
[16] = test system: HOP-92 NSCLC
[17] = test system: HS 578T breast
[18] = test system: HT29 colon
[19] = test system: IGROV1 ovarian
[20] = test system: K-562 leukemia
[21] = test system: KM12 colon
[22] = test system: LOX IMVI melanoma
[23] = test system: M14 melanoma
[24] = test system: MALME-3M melanoma
[25] = test system: MCF7 breast
[26] = test system: MDA-MB-231 breast
[27] = test system: MDA-MB-435
[28] = test system: MDA-N
[29] = test system: MOLT-4 leukemia
[30] = test system: NCI-H23 lung
[31] = test system: NCI-H460 lung
[32] = test system: NCI-H522 lung
[33] = test system: NCI/ADR-RES ovarian
[34] = test system: OVCAR-3 ovarian
[35] = test system: OVCAR-4 ovarian
[36] = test system: OVCAR-5 ovarian
[37] = test system: OVCAR-8 ovarian
[38] = test system: PC-3 prostate
[39] = test system: RPMI-8226 leukemia
[40] = test system: RXF 393 renal
[41] = test system: SF-268 CNS
[42] = test system: SF-295 CNS
[43] = test system: SF-539 CNS
[44] = test system: SK-MEL-2 melanoma
[45] = test system: SK-MEL-28 melanoma
[46] = test system: SK-MEL-5 melanoma
[47] = test system: SK-OV-3 ovarian
[48] = test system: SN12C renal
[49] = test system: SNB-19 CNS
[50] = test system: SNB-75 CNS
[51] = test system: SR leukemia
[52] = test system: SW-620 colon
[53] = test system: T-47D breast
[54] = test system: TK-10 renal
[55] = test system: U251 CNS
[56] = test system: UACC-257 melanoma
[57] = test system: UACC-62 melanoma
[58] = test system: UO-31 renal
[59] = test system: NCI-H226 lung

CN1CCCN2CCN(C)CCN(CC1)CC2
TGI [1]: > 100 µM | TGI [2]: > 100 µM | TGI [3]: > 100 µM | TGI [4]: > 100 µM | TGI [5]: > 100 µM | TGI [6]: > 100 µM | TGI [7]: > 100 µM | TGI [8]: > 100 µM | TGI [9]: > 100 µM | TGI [10]: > 100 µM | TGI [11]: > 100 µM | TGI [12]: > 100 µM | TGI [13]: > 100 µM | TGI [14]: > 100 µM | TGI [15]: > 100 µM | TGI [16]: > 100 µM | TGI [17]: > 100 µM | TGI [18]: > 100 µM | TGI [19]: > 100 µM | TGI [20]: > 100 µM | TGI [21]: > 100 µM | TGI [22]: > 100 µM | TGI [23]: > 100 µM | TGI [24]: > 100 µM | TGI [25]: > 100 µM | TGI [26]: > 100 µM | TGI [27]: > 100 µM | TGI [28]: > 100 µM | TGI [29]: > 100 µM | TGI [30]: > 100 µM | TGI [31]: > 100 µM | TGI [32]: > 100 µM | TGI [33]: > 100 µM | TGI [34]: > 100 µM | TGI [35]: > 100 µM | TGI [36]: > 100 µM | TGI [37]: > 100 µM | TGI [38]: > 100 µM | TGI [39]: > 100 µM | TGI [40]: > 100 µM | TGI [41]: > 100 µM | TGI [42]: > 100 µM | TGI [43]: > 100 µM | TGI [44]: > 100 µM | TGI [45]: > 100 µM | TGI [46]: > 100 µM | TGI [47]: > 100 µM | TGI [48]: > 100 µM | TGI [49]: > 100 µM | TGI [50]: > 100 µM | TGI [51]: > 100 µM | TGI [52]: > 100 µM | TGI [53]: > 100 µM | TGI [54]: > 100 µM | TGI [55]: > 100 µM | TGI [56]: > 100 µM | TGI [57]: > 100 µM | TGI [58]: > 100 µM

CSC(SC)=C1CC(=O)Nc2ccccc2C1=O
TGI [1]: > 100 µM | TGI [2]: > 100 µM | TGI [3]: > 100 µM | TGI [4]: > 100 µM | TGI [5]: > 100 µM | TGI [6]: 94.1 µM | TGI [7]: 52.7 µM | TGI [8]: > 100 µM | TGI [9]: > 100 µM | TGI [10]: > 100 µM | TGI [11]: > 100 µM | TGI [12]: > 100 µM | TGI [13]: > 100 µM | TGI [14]: > 100 µM | TGI [15]: > 100 µM | TGI [16]: 78.4 µM | TGI [17]: > 100 µM | TGI [18]: > 100 µM | TGI [19]: > 100 µM | TGI [20]: 95.8 µM | TGI [21]: > 100 µM | TGI [22]: 32.5 µM | TGI [23]: > 100 µM | TGI [24]: > 100 µM | TGI [25]: > 100 µM | TGI [26]: > 100 µM | TGI [27]: > 100 µM | TGI [28]: > 100 µM | TGI [29]: 96 µM | TGI [59]: > 100 µM | TGI [30]: > 100 µM | TGI [31]: > 100 µM | TGI [32]: > 100 µM | TGI [33]: > 100 µM | TGI [34]: > 100 µM | TGI [35]: > 100 µM | TGI [36]: > 100 µM | TGI [37]: > 100 µM | TGI [38]: > 100 µM | TGI [40]: 52.8 µM | TGI [41]: > 100 µM | TGI [42]: > 100 µM | TGI [43]: > 100 µM | TGI [44]: > 100 µM | TGI [45]: > 100 µM | TGI [46]: > 100 µM | TGI [47]: > 100 µM | TGI [48]: > 100 µM | TGI [49]: > 100 µM | TGI [51]: > 100 µM | TGI [53]: 56.5 µM | TGI [54]: > 100 µM | TGI [55]: > 100 µM | TGI [56]: > 100 µM | TGI [57]: > 100 µM | TGI [58]: > 100 µM

Cc1ccc2c(c1)SSSSS2
TGI [1]: 37.2 µM | TGI [2]: 35.1 µM | TGI [3]: 48.7 µM | TGI [4]: 34.9 µM | TGI [5]: 39.1 µM | TGI [6]: 36 µM | TGI [7]: 17 µM | TGI [8]: 97.9 µM | TGI [9]: 31.2 µM | TGI [10]: 65.1 µM | TGI [11]: 31.6 µM | TGI [12]: 30.6 µM | TGI [13]: 30 µM | TGI [14]: 42.2 µM | TGI [15]: 38 µM | TGI [16]: 34.5 µM | TGI [17]: 69.6 µM | TGI [18]: 70.6 µM | TGI [19]: 40.8 µM | TGI [20]: > 100 µM | TGI [21]: 34 µM | TGI [22]: 34.4 µM | TGI [23]: 58.6 µM | TGI [24]: 44.6 µM | TGI [25]: 43 µM | TGI [26]: 59.1 µM | TGI [27]: 38.8 µM | TGI [28]: 87.1 µM | TGI [29]: > 100 µM | TGI [30]: 43 µM | TGI [31]: 32.5 µM | TGI [32]: 40.6 µM | TGI [33]: 66.7 µM | TGI [34]: 40.5 µM | TGI [35]: 37.2 µM | TGI [36]: 46.9 µM | TGI [37]: 53.7 µM | TGI [38]: 57.8 µM | TGI [40]: 39 µM | TGI [41]: 60.5 µM | TGI [42]: 37 µM | TGI [45]: 65.4 µM | TGI [46]: 35.8 µM | TGI [47]: 39.8 µM | TGI [48]: 46.7 µM | TGI [49]: 48 µM | TGI [50]: 49.2 µM | TGI [51]: > 100 µM | TGI [52]: 37.1 µM | TGI [53]: 29 µM | TGI [54]: 37.9 µM | TGI [55]: > 100 µM | TGI [56]: 38.5 µM | TGI [57]: 36.2 µM | TGI [58]: 33 µM

CCCC1NC(=O)C(CC(C)C)NC(=O)c2cccc(n2)C(=O)NC(CC(C)C)C(=O)NC(CCC)C(=O)NC(C(=O)OC)CCCCNC1=O (stereo not given)
TGI [1]: > 100 µM | TGI [2]: > 100 µM | TGI [3]: > 100 µM | TGI [5]: 76 µM | TGI [6]: > 100 µM | TGI [7]: 36.6 µM | TGI [8]: > 100 µM | TGI [9]: > 100 µM | TGI [10]: 90.9 µM | TGI [11]: 41.7 µM | TGI [12]: > 100 µM | TGI [13]: > 100 µM | TGI [15]: > 100 µM | TGI [16]: 65.9 µM | TGI [17]: > 100 µM | TGI [18]: 94.5 µM | TGI [19]: > 100 µM | TGI [20]: 53.7 µM | TGI [21]: 59.3 µM | TGI [22]: 44.4 µM | TGI [23]: > 100 µM | TGI [24]: 62.8 µM | TGI [25]: > 100 µM | TGI [26]: 48.9 µM | TGI [27]: > 100 µM | TGI [28]: > 100 µM | TGI [29]: 44.8 µM | TGI [59]: 71.4 µM | TGI [30]: > 100 µM | TGI [31]: > 100 µM | TGI [33]: > 100 µM | TGI [34]: > 100 µM | TGI [35]: > 100 µM | TGI [36]: > 100 µM | TGI [37]: > 100 µM | TGI [38]: 91.3 µM | TGI [39]: 32 µM | TGI [40]: > 100 µM | TGI [41]: > 100 µM | TGI [42]: > 100 µM | TGI [43]: 45.1 µM | TGI [44]: > 100 µM | TGI [45]: 78.9 µM | TGI [46]: > 100 µM | TGI [47]: 91.5 µM | TGI [48]: > 100 µM | TGI [49]: > 100 µM | TGI [50]: 57.7 µM | TGI [51]: 65.6 µM | TGI [52]: > 100 µM | TGI [53]: > 100 µM | TGI [54]: > 100 µM | TGI [55]: > 100 µM | TGI [56]: > 100 µM | TGI [57]: 51.5 µM | TGI [58]: > 100 µM
